Source: PubChem BioAssay (NCI)
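Here, GI50 denotes the concentration required for 50% inhibition of growth. Definition used: TGI = concentration required for complete inhibition of growth.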

Experiments:
Experiment in all cases: growth of human tumour cells (NCI), 384-well format
A498 renal = system: A498 renal
NCI/ADR-RES ovarian = system: NCI/ADR-RES ovarian
SF-295 CNS = system: SF-295 CNS
RPMI-8226 leukemia = system: RPMI-8226 leukemia
UO-31 renal = system: UO-31 renal
SK-MEL-28 melanoma = system: SK-MEL-28 melanoma
OVCAR-4 ovarian = system: OVCAR-4 ovarian
CCRF-CEM leukemia = system: CCRF-CEM leukemia
EKVX NSCLC = system: EKVX NSCLC
MOLT-4 leukemia = system: MOLT-4 leukemia
SK-OV-3 ovarian = system: SK-OV-3 ovarian
TK-10 renal = system: TK-10 renal
NCI-H460 NSCLC = system: NCI-H460 NSCLC
786-0 renal = system: 786-0 renal
HCT-15 colon = system: HCT-15 colon
MDA-MB-435 melanoma = system: MDA-MB-435 melanoma
HOP-62 NSCLC = system: HOP-62 NSCLC
ACHN renal = system: ACHN renal
IGROV1 ovarian = system: IGROV1 ovarian
SNB-19 CNS = system: SNB-19 CNS
HL-60(TB) leukemia = system: HL-60(TB) leukemia
HS 578T breast = system: HS 578T breast
HCC-2998 colon = system: HCC-2998 colon
NCI-H522 lung = system: NCI-H522 lung
T-47D breast = system: T-47D breast
MDA-MB-468 breast = system: MDA-MB-468 breast
UACC-62 melanoma = system: UACC-62 melanoma
HCT-116 colon = system: HCT-116 colon
RXF 393 renal = system: RXF 393 renal
NCI-H226 lung = system: NCI-H226 lung
OVCAR-3 ovarian = system: OVCAR-3 ovarian
SW-620 colon = system: SW-620 colon
SN12C renal = system: SN12C renal
OVCAR-8 ovarian = system: OVCAR-8 ovarian
U251 glioblastoma = system: U251 glioblastoma
SF-539 CNS = system: SF-539 CNS
UACC-257 melanoma = system: UACC-257 melanoma
A549 NSCLC = system: A549 NSCLC
COLO 205 colon = system: COLO 205 colon
KM12 colon = system: KM12 colon
NCI-H322M lung = system: NCI-H322M lung
HOP-92 NSCLC = system: HOP-92 NSCLC
HT29 colon = system: HT29 colon
OVCAR-5 ovarian = system: OVCAR-5 ovarian
SF-268 CNS = system: SF-268 CNS
NCI-H23 lung = system: NCI-H23 lung
CAKI-1 renal = system: CAKI-1 renal
LOX IMVI melanoma = system: LOX IMVI melanoma
M14 melanoma = system: M14 melanoma
DU-145 prostate = system: DU-145 prostate
SNB-75 CNS = system: SNB-75 CNS
MALME-3M melanoma = system: MALME-3M melanoma
SK-MEL-5 melanoma = system: SK-MEL-5 melanoma
BT-549 breast = system: BT-549 breast
PC-3 prostate = system: PC-3 prostate

Cc1cc(Cl)cc(OCCn2cc(F)cn2)c1-c1nc(N)nc2c1CN(C(=O)NCC(C)(F)F)C2
GI50 (A498 renal): 149 nM | TGI (A498 renal): > 100 µM | GI50 (NCI/ADR-RES ovarian): 5.11 µM | TGI (NCI/ADR-RES ovarian): 63 µM | GI50 (SF-295 CNS): 58.9 nM | TGI (SF-295 CNS): 230 nM | GI50 (RPMI-8226 leukemia): 57 nM | TGI (RPMI-8226 leukemia): 305 nM | GI50 (UO-31 renal): 394 nM | TGI (UO-31 renal): 56.1 µM | GI50 (SK-MEL-28 melanoma): 71.5 nM | TGI (SK-MEL-28 melanoma): > 100 µM | GI50 (OVCAR-4 ovarian): > 100 µM | TGI (OVCAR-4 ovarian): > 100 µM | GI50 (CCRF-CEM leukemia): 29.1 nM | TGI (CCRF-CEM leukemia): 94.1 nM | GI50 (EKVX NSCLC): 90.2 nM | TGI (EKVX NSCLC): 31.1 µM | GI50 (MOLT-4 leukemia): 17.5 nM | TGI (MOLT-4 leukemia): 34.7 nM | GI50 (SK-OV-3 ovarian): 121 nM | TGI (SK-OV-3 ovarian): > 100 µM | GI50 (TK-10 renal): 275 nM | TGI (TK-10 renal): 12.7 µM | GI50 (NCI-H460 NSCLC): 34.2 nM | TGI (NCI-H460 NSCLC): 106 nM | GI50 (786-0 renal): 59.3 nM | TGI (786-0 renal): 5.81 µM | GI50 (HCT-15 colon): 339 nM | TGI (HCT-15 colon): > 100 µM | GI50 (MDA-MB-435 melanoma): 83.1 nM | TGI (MDA-MB-435 melanoma): > 100 µM | GI50 (HOP-62 NSCLC): 65.1 nM | TGI (HOP-62 NSCLC): > 100 µM | GI50 (ACHN renal): 389 nM | TGI (ACHN renal): > 100 µM | GI50 (IGROV1 ovarian): 40.2 nM | TGI (IGROV1 ovarian): 443 nM | GI50 (SNB-19 CNS): 122 nM | TGI (SNB-19 CNS): 24.4 µM | GI50 (HL-60(TB) leukemia): 32.5 nM | TGI (HL-60(TB) leukemia): 71.2 nM | GI50 (HS 578T breast): 46.8 nM | TGI (HS 578T breast): 302 nM | GI50 (HCC-2998 colon): 21.5 nM | TGI (HCC-2998 colon): 71.4 nM | GI50 (NCI-H522 lung): 23.9 nM | TGI (NCI-H522 lung): 45.7 nM | GI50 (T-47D breast): 43.8 nM | TGI (T-47D breast): 307 nM | GI50 (MDA-MB-468 breast): 34 nM | TGI (MDA-MB-468 breast): 76 nM | GI50 (UACC-62 melanoma): 54.3 nM | TGI (UACC-62 melanoma): 300 nM | GI50 (HCT-116 colon): 68.5 nM | TGI (HCT-116 colon): 18.2 µM | GI50 (RXF 393 renal): 41.3 nM | TGI (RXF 393 renal): 842 nM | GI50 (NCI-H226 lung): 174 nM | TGI (NCI-H226 lung): 842 nM | GI50 (OVCAR-3 ovarian): 41.6 nM | TGI (OVCAR-3 ovarian): 939 nM | GI50 (SW-620 colon): 38.5 nM | TGI (SW-620 colon): 268 nM | GI50 (SN12C renal): 51.6 nM | TGI (SN12C renal): 316 nM | GI50 (OVCAR-8 ovarian): 43.1 nM | TGI (OVCAR-8 ovarian): 181 nM | GI50 (U251 glioblastoma): 37.9 nM | TGI (U251 glioblastoma): 130 nM | GI50 (SF-539 CNS): 26.1 nM | TGI (SF-539 CNS): 62.8 nM | GI50 (UACC-257 melanoma): 394 nM | TGI (UACC-257 melanoma): > 100 µM | GI50 (A549 NSCLC): 45.6 nM | TGI (A549 NSCLC): > 100 µM | GI50 (COLO 205 colon): 30.6 nM | TGI (COLO 205 colon): 136 nM | GI50 (KM12 colon): 37.3 nM | TGI (KM12 colon): 802 nM | GI50 (NCI-H322M lung): 136 nM | TGI (NCI-H322M lung): > 100 µM | GI50 (HOP-92 NSCLC): 73.3 nM | TGI (HOP-92 NSCLC): 279 nM | GI50 (HT29 colon): 35 nM | TGI (HT29 colon): 16.8 µM | GI50 (OVCAR-5 ovarian): 115 nM | TGI (OVCAR-5 ovarian): > 100 µM | GI50 (SF-268 CNS): 24 nM | TGI (SF-268 CNS): 63.2 nM | GI50 (NCI-H23 lung): 32.1 nM | TGI (NCI-H23 lung): 95.4 nM | GI50 (CAKI-1 renal): 163 nM | TGI (CAKI-1 renal): > 100 µM | GI50 (LOX IMVI melanoma): 35.7 nM | TGI (LOX IMVI melanoma): 129 nM | GI50 (M14 melanoma): 40.8 nM | TGI (M14 melanoma): > 100 µM | GI50 (DU-145 prostate): 40.5 nM | TGI (DU-145 prostate): 1750 nM | GI50 (SNB-75 CNS): 152 nM | TGI (SNB-75 CNS): 664 nM | GI50 (MALME-3M melanoma): 30.7 nM | TGI (MALME-3M melanoma): 85.2 nM | GI50 (SK-MEL-5 melanoma): 47.2 nM | TGI (SK-MEL-5 melanoma): > 100 µM | GI50 (BT-549 breast): 36.3 nM | TGI (BT-549 breast): 769 nM | GI50 (PC-3 prostate): 86.7 nM | TGI (PC-3 prostate): 533 nM
